This is an account of results in paper PMC6100603, “Exploring the Dual Inhibitory Activity of Novel Anthranilic Acid Derivatives towards α-Glucosidase and Glycogen Phosphorylase Antidiabetic Targets: Design, In Vitro Enzyme Assay, and Docking Studies” (Molecules : A Journal of Synthetic Chemistry and Natural …, 2018).

For series [1], the target named is T1, Rabbit muscle glycogen phosphorylase a (Oryctolagus cuniculus, UniProt P00489).
T1 construct: purchased Abcam
T1 sequence (P00489 2-843 limits assumed): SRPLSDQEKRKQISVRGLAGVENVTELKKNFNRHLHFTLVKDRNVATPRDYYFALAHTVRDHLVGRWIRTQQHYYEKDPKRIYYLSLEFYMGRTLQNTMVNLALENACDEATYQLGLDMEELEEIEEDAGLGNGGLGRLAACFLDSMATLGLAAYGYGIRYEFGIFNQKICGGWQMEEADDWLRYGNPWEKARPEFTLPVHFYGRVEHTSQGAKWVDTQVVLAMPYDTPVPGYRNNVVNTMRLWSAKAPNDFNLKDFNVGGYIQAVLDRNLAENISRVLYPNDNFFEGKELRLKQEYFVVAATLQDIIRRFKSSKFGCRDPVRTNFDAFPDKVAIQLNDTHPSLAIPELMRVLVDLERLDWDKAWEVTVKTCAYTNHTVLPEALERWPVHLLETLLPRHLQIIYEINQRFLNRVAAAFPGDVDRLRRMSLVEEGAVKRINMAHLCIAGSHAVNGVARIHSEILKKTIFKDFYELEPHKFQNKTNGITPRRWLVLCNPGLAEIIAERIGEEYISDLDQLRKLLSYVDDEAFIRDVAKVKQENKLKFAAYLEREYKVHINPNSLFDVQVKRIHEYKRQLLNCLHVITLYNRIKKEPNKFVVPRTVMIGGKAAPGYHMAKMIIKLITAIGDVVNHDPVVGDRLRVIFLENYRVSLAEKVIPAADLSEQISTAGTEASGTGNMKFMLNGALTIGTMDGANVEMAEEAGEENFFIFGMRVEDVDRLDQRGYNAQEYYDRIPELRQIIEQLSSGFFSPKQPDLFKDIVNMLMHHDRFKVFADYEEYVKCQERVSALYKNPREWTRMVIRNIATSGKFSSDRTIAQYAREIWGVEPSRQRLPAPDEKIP
As to the kind of experiment: Glycogen phosphorylase enzyme assay (phosphate release, malachite green). In kind it is biochemical. The settings on record: mean of three determinations. On the procedure:
Rabbit muscle glycogen phosphorylase a (from Abcam, 0.475 mg/ mL) activity was measured in the direction of glycogen synthesis by the release of phosphate from glucose-1-phosphate using a 384-well plate at 22 °C in […] of buffer containing 50 mM Hepes (pH 7.2), 100 mM KCl, 2.5 mM EGTA, 2.5 Mm MgCl2, 0.25 Mm glucose-1-phosphate, and 1 mg/mL glycogen with a 30-min incubation time. Phosphate was measured at 620 nm, 5 minutes after the addition of […] of 1 MHCl containing 10 mg/mL ammonium molybdate and 0.38 mg/mL malachite green. Test compounds were added to the assay in […] of 14% DMSO. Compounds were tested against a deoxynojirimycin hydrochloride (Abcam) standard in 11 point concentration response curve in duplicate on two separate occasions. Data were analyzed using GraphPad Prism v.4.03, GraphPad Software, (La Jolla, CA, USA).
A nonlinear regression (curve fit) analysis with a sigmoidal dose response equation (variable slope) was applied to generate IC50 and hill slope values. […] Compounds were screened with maximal concentrations of […]. The assay was carefully monitored for signs of compound insolubility. The results are presented as mean values from three determinations.

The subject of series [2] is Sprague-Dawley (SD) rats with streptozocin-induced diabetes. As to the kind of experiment: In vivo antidiabetic screening, blood glucose level in STZ-induced diabetic rats. The settings on record: for Blood Glucose Level, Reading 1: 15 h fasting followed by 5-mg meal, before treatment; for Blood Glucose Level, Fasting: after fasting for 15 h, pretreatment; for Blood Glucose Level, Reading 2: second day, after oral treatment 40 mg/100 g body weight followed by 5-mg meal. Details: species or system rat. On the procedure:
The compound (7b) was tested on Sprague-Dawley (SD) rats for the effect on the blood glucose level, as described in the experimental Section 3.8, and the results are reported in (Table 2) and (Figure 3). Blood glucose levels were measured after fasting for 15 h (fasting reading), followed by the administration of a 5-mg meal (reading 1). Moreover, a second day reading after treatment with normal saline, acarbose, or (7b) compound blood glucose level (reading 2) followed by a 5-mg meal, was measured. […] In addition, the blood glucose level after 15 h fasting followed by a meal of 5 mg (reading 1) was compared to the blood glucose levels under the same conditions, and following the administration of normal saline, acarbose or compound (7b). For the control non-diabetic non-treated group and the diabetic non- treated group, no significant difference between (readings 1 and 2) was shown. For the group of rats treated with acarbose or compound (7b) one hour before a meal, blood glucose levels decreased from 147 ± 2 to 136 ± 3.28 and 120 ± 0.88 mg/dL to 116 ± 0.57, respectively. […] Twenty male Sprague–Dawley (SD) rats were maintained in an air-conditioned room (25 °C) at a constant humidity (55–60%). All rats were provided with a standard rat diet containing 60% carbohydrate (w/w), 2% fat (w/w), 17.5% protein (w/w), 8% fiber (w/w), and water ad libitum. The experiments were performed in accordance with the internationally accepted standard ethical guidelines for laboratory animal use and care, as described in the European Community guidelines. The Institutional Animal Ethics Committee of Al-Azhar University approved the study protocols (approval No: 409/432, 3/2018). Diabetes was induced in 12 Sprague–Dawley (SD) male rats by a single intraperitoneal injection of 40 mg/kg streptozocin (STZ) dissolved in 0.1 M/L citrate buffer at a pH of 4.5. Three rats were injected with normal saline and vehicle only to serve as negative controls. The remaining diabetic rats (nine) were identified by an increase in blood glucose more than 200 ± 10 mg/dL after one week. Blood glucose levels were measured using One Touch Ultra 2 glucometer (Lifescan inc., Wayne, USA) every week for the following two weeks to confirm the diabetic status. Rats were 6–8 weeks of age and the average weight when starting the experiment was 200 ± 20 g. Twelve rats were randomly assigned to four groups. Group 1: non-diabetic non-treated (control). Group 2: Diabetic non-treated. Group 3: Diabetic and administrated acarbose before meals. Group 4: Diabetic and administrated our new compound before a meal. Briefly; the first group was injected with an IP vehicle only. The other three groups were injected with streptozocin (STZ) and developed diabetes. The second group was diabetic and untreated. The third group was diabetic rats treated with acarbose at 40 mg per 100 g body weight 30 min. before meal using oral tube. The fourth group administrated 40 mg/100 g body weight of the test compound (7b). Rats were fasted over 15 h and blood sugar levels were measured (pretreatment). For each rat, 5 mg standard rat diet was supplied to each rat and blood glucose levels were measured to detect increases after 1 hour. Rats were fed again with the same amount after 8 h. Food was removed to allow animals to fast again for 15 h. On the following day, groups 1 and two were not given any treatment, while group 3 rats were given acarbose (positive control) and group 4 were given the test compound (7b). Blood glucose levels were measured in tail vein blood samples taken from fasting rats (time point 0), then designated groups are fed either acarbose or the test compound, suspended in PBS and delivered using an oral tube. After half an hour, the rats were given five mg. Blood samples were taken after 1 hour. Blood glucose was expected to rise after meal and the effect of the drugs was evaluated according to their abilities to control post-meal excursions.

The target of series [3] is α-Glucosidase from Saccharomyces cerevisiae. The experiment in a line: α-Glucosidase inhibition assay (spectrophotometric, p-nitrophenyl-α-D-glucopyranoside). The format is biochemical. The conditions noted are these: mean ± spread, triplicate. The method, then:
α-Glucosidase inhibition assay was performed spectrophotometrically. α-Glucosidase from Saccharomyces cerevisiae (Abcam, Cambridge, UK) was dissolved in phosphate buffer (pH 6.8, 50 mM). Test compounds were dissolved in DMSO. In 96-well microtiter plates, 20 µL of test sample, 20 µL of enzyme (20 mU/mL) and 135 µL of buffer were added and incubated for 15 minutes at 37 °C. After incubation, 25 µL of p-nitrophenyl-α-D-glucopyranoside (2 mM, Abcam) was added and change in absorbance was monitored for 20 min at 400 nm. Test compound was replaced by DMSO (10% final) as control. Deoxynojirimycin hydrochloride (Abcam) was used as a standard inhibitor. The assays were done in triplicate. IC50 values were calculated from non-linear regression curve of percentage inhibition versus log compound concentration.

Several values for one entry are separate records, joined by “and”; a condition that tells them apart may be missing. Equal values may be shown once.

The molecule `O=C(Nc1ccccc1C(=O)N/N=C/c1ccc(O)cc1O)c1ccccn1` [Compound 7b, (E)-N-(2-(2-(2,4-Dihydroxybenzylidene)hydrazine-1-carbonyl)phenyl)picolinamide] showed a melting point of 215 to 217 °C. In series [1], half-maximal inhibition (IC50) was put at 13.7 ± 30 nM. Moreover, the “Effect on blood glucose level compared with reference drug” value in series [2] (40 mg/100 g body weight oral before meal) is “succeeded in decreasing the blood glucose level of diabetic rats better than the reference oral antidiabetic drug, acarbose”. In addition, in series [2], the “Blood Glucose Level, Reading 1” value was found to be 120 ± 0.88 mg/dL; the “Blood Glucose Level, Fasting” value stood at 207 ± 0.88 mg/dL; the “Blood Glucose Level, Reading 2” value is recorded as 116 ± 0.57 mg/dL. Moreover, it took 17.6 nM to reach half-maximal inhibition in series [3] (IC50).

`O=C(Nc1ccccc1C(=O)Nc1ccc(S(=O)(=O)Nc2nccs2)cc1)c1ccccn1` [Compound 5c, N-(2-((4-(N-(Thiazol-2-yl)sulfamoyl)phenyl)carbamoyl)phenyl)picolinamide] yielded a melting point of 217 to 219 °C. In addition, half-maximal inhibition in series [3] (IC50) was put at 12.5 ± 10 nM.

As to `O=C(Nc1ccccc1C(=O)Nc1ccc(S(=O)(=O)Nc2ccccn2)cc1)c1ccccn1` [Compound 5b, N-(2-((4-(N-(Pyridin-2-yl)sulfamoyl)phenyl)carbamoyl)phenyl)picolinamide], the IC50 worked out at 16.6 nM in series [1] and 21.2 nM in series [3].

`COc1ccc(CNC(=O)c2ccccc2NC(=O)c2ccccn2)cc1` [Compound 3b, N-(2-((4-Methoxybenzyl)carbamoyl)phenyl)picolinamide] showed a melting point of 225 to 227 °C. For the same molecule, in series [3], it took 22.3 nM to reach half-maximal inhibition (IC50).

The molecule `NS(=O)(=O)c1ccc(NC(=O)c2ccccc2NC(=O)c2ccccn2)cc1` [Compound 5a, N-(2-((4-Sulfamoylphenyl)carbamoyl)phenyl)picolinamide] yielded an IC50 in series [3] of 47.7 nM.

The molecule `NNC(=O)c1ccccc1NC(=O)c1ccccn1` [Compound 6, N-(2-(Hydrazinecarbonyl)phenyl)picolinamide] had a melting point of 210 to 212 °C. In addition, the half-maximal inhibitory concentration (IC50) in series [1] is 582 ± 580 nM. Moreover, the IC50 in series [3] (listed as 7) was found to be 416 nM.

In the case of `O=C(Nc1ccccc1C(=O)N/N=C/c1ccc(Cl)cc1Cl)c1ccccn1` [Compound 7d, (E)-N-(2-(2-(2,4-Dichlorobenzylidene)hydrazine-1-carbonyl)phenyl)picolinamide], the melting point is 212 to 214 °C. The molecule also gave an IC50 in series [3] of 78.4 ± 50 nM.

`O=C(Nc1ccccc1C(=O)NCc1ccc(Cl)cc1)c1ccccn1` [Compound 3d, N-(2-((4-Chlorobenzyl)carbamoyl)phenyl)picolinamide] returned a melting point of 233 to 235 °C. In series [1], this molecule registered an IC50 of 177 ± 50 nM. The same molecule returned an IC50 in series [3] of 94.7 nM.

For the molecule `O=C(Nc1ccccc1C(=O)N/N=C/c1ccccn1)c1ccccn1` [Compound 7c, (E)-N-(2-(2-(Pyridin-2-ylmethylene)hydrazine-1-carbonyl)phenyl)picolinamide], the melting point is 225 to 227 °C. The same molecule registered an IC50 in series [1] of 86.4 nM. In addition, half-maximal inhibition in series [3] (IC50) required 231 ± 570 nM.

Regarding `O=C(Nc1ccccc1C(=O)N/N=C/c1ccccc1)c1ccccn1` [Compound 7a, (E)-N-(2-(2-Benzylidenehydrazine-1-carbonyl)phenyl)picolinamide], the melting point fell in the range of 205 to 207 °C. The same molecule gave an IC50 in series [1] of 208 nM.

For `COC(=O)c1ccccc1NC(=O)c1ccccn1` [Compound 1, Methyl 2-(picolinamido)benzoate], the melting point was in the range of 210 to 212 °C. The IC50 in series [1] came to 541 ± 60 nM. In addition, the IC50 in series [3] is 735 nM and 736 nM.

In the case of `OC[C@H]1NC[C@H](O)[C@@H](O)[C@@H]1O` [1-Deoxynojirimycin, reference compound], in series [1], half-maximal inhibition (IC50) was put at 55.6 ± 110 nM.

As for `O=C(Nc1ccccc1C(=O)NCc1ccccc1)c1ccccn1` [Compound 3a, N-(2-(Benzylcarbamoyl)phenyl)picolinamide], the IC50 in series [1] amounted to 150 ± 70 nM; in series [3], 89.6 nM.

Consider `C[C@H]1O[C@H](O[C@H]2[C@H](O)[C@@H](O)[C@@H](O[C@H]3[C@H](O)[C@@H](O)C(O)O[C@@H]3CO)O[C@@H]2CO)[C@H](O)[C@@H](O)[C@@H]1N[C@H]1C=C(CO)[C@@H](O)[C@H](O)[C@H]1O` (stereo partly shown) [Acarbose, reference compound], for which, in series [2], the “Blood Glucose Level, Reading 1” value stood at 147 ± 2.0 mg/dL; the “Blood Glucose Level, Fasting” value came to 204 ± 4.5 mg/dL; the “Blood Glucose Level, Reading 2” value is 136 ± 3.28 mg/dL. Besides, the “Blood Glucose Level, Reading 1” value in series [2] (listed as acarbose) came to 147 ± 2 mg/dL.

On to `Cc1ccc(CNC(=O)c2ccccc2NC(=O)c2ccccn2)cc1` [Compound 3e, N-(2-((4-Methylbenzyl)carbamoyl)phenyl)picolinamide], for which the melting point lay within 275 to 278 °C. This molecule also showed an IC50 in series [1] of 262 ± 10 nM.

For `O=C(Nc1ccccc1C(=O)NCc1ccc(F)cc1)c1ccccn1` [Compound 3c, N-(2-((4-Fluorobenzyl)carbamoyl)phenyl)picolinamide], it took 86.4 ± 20 nM to reach half-maximal inhibition in series [1] (IC50).
